This is an account of results in ChEMBL document CHEMBL1129406, “Sustained decrease in cocaine-maintained responding in rhesus monkeys with 1-[2-[bis(4-fluorophenyl)methoxy]ethyl]-4-(3-hydroxy-3-phenylpropyl) piperazinyl decanoate, a long-acting ester derivative of GBR 12909” (1996).

Holding throughout (format): functional, Cercopithecidae
The test system of experiment [1] is Monkey. As to the kind of experiment: Effect of compound on rate of response maintained by cocaine (4.026 resp/s,+/-13.6%) in monkeys at a dose of 3 mL.
Experiment [2] relates to Monkey. In words: Effect of compound on rate of response maintained by food (3.696 resp/s, +/-9.99%) in monkeys at a dose of 3 mL.
In experiment [3] the test system is Monkey. In words: Effect of compound on rate of response maintained by cocaine (4.026 resp/s,+/-13.6%) in monkeys.
Experiment [4] relates to Monkey. As to the kind of experiment: Effect of compound on rate of response maintained by food (3.696 resp/s, +/-9.99%) in monkeys.
The subject of experiment [5] is Monkey. In words: Effect of compound on rate of response maintained by cocaine (4.026 resp/s,+/-13.6%) in monkeys at a dose of 6 mL.

Regarding `CCCCCCCCCC(=O)OC(CCN1CCN(CCOC(c2ccc(F)cc2)c2ccc(F)cc2)CC1)c1ccccc1` (stereo not given), the Control in the experiment with Monkey [1] is given as 74%; with Monkey [2], 82%; in the experiment with Monkey [3] it was 76.2%; in the experiment on Monkey [4] it was 97%; with Monkey [5] it was 25.3%.
